Like-named read-outs stand apart in the source and are kept apart here.
Legend:
PRMT5-MEP50 = PRMT5-MEP50 (Homo sapiens, UniProt O14744); assay: PRMT5 assay (3H-SAM flashplate scintillation); assay type: biochemical; conditions: PRMT5-MEP50 2.5 nM, histone H4 peptide 100 nM, 3H-SAM 250 nM, 60 min
Procedure, shortened: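 Radiometric methyltransferase read-out: after 60 min reaction, excess unlabelled SAM (15 μM) stops turnover and biotinylated H4 peptide (100 nM) carrying 3H-methyl from 250 nM 3H-SAM is captured on streptavidin flashplates (2 h, 25° C) for scintillation counting. Enzyme, 2.5 nM PRMT5-MEP50, was preincubated 5 min with compound in pH 8.0 Tris buffer with DTT and Tween.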

MOLM-13 cells [1] = assay: MOLM-13 48 Hour cell proliferation assay (Cell Titer-Glo); assay type: cell-based; conditions: Homo sapiens
Protocol: MOLM-13 48 Hour Cell Proliferation Assay
MOLM-13 (DSMZ) cells were seeded at 1000 cells per well in a volume of 44 μL in a Falcon 384-well tissue culture treated clear bottom microplate in RPMI 1640 media containing 10% fetal bovine serum using a Multidrop Combi (ThermoFisher Scientific). Cells were incubated overnight at 37° C. in a humidified tissue culture incubator. The Mosquito® HTS Liquid Handler was used to make a compound/media intermediate plate by aliquoting […] of compound from the initial compound dilution plate (concentrations ranging from 10.0 mM to 38.0 nM in 100% DMSO) into a V bottom 384-well screen matrix plate containing 49 µL of media containing the appropriate serum (50-fold dilution, 2% DMSO). The Apricot liquid handling system was used to transfer […] compounds from the intermediate plate into the Falcon 384-well tissue culture plate containing 44 μL cells (10-point, 4-fold dilution spanning concentrations 25.0 μM to […], 0.25% DMSO final), and placed in a humidified tissue culture incubator at 37° C. After 48 hours, 25 μL of Cell Titer-Glo reagent (Promega) was added to each well using a Multidrop Combi. The plate was protected from light and placed on an IKA plate shaker for at 300 rpm for 10 minutes at room temperature. The plate was read on an EnVision plate reader (Perkin Elmer) using the Ultra Sensitive Luminescence protocol. Data analysis was performed by normalizing the raw luminescence units to an average of the positive control values for staurosporine (100% cell death) and the negative control values for DMSO (0% cell death). An IC50 was calculated using a 4-parameter logistic nonlinear regression model in GraphPad Prism.

[2] = test system: m^6 A in cellular mRNA of MOLM-13 cells; assay: m^6 A-mRNA LC-MS/MS assay (m^6 A cellular assay); assay type: cell-based; conditions: Homo sapiens, 24 hours incubation, LC-MS/MS of m^6 A/A in mRNA
Protocol: m^6 A-mRNA LC-MS/MS Assay
5×10^6 MOLM-13 (DSMZ) cells were seeded into 10 cm dishes in RPMI 1640 media containing 10% fetal bovine serum and placed in a humidified tissue culture incubator at 37° C. overnight. Compounds were resuspended in 100% DMSO and dosed into each dish at a fixed concentration to comprise an 8-point dose response with a 4-fold serial dilution ranging from 25 μM to 1.5 nM in 0.25% DMSO final and allowed to incubate for 24 hours in a humidified tissue culture incubator at 37° C. Cells were harvested by centrifugation followed by mRNA extraction using DTRECT Dynabeads mRNA DTRECT kit (Life Technologies). mRNA was quantified on NanoDrop spectrophotometer (Thermo Fisher Scientific) and digested into single nucleosides using Nucleoside Digestion Mix (New England Biolabs). Nucleosides are quantified with retention time on a BEH […] column (Waters) and the nucleoside-to-base ion mass transition of 282.1-150.1 (m^6 A) and 268-136 (A) on an API 6500+ triple quadrupole mass spectrometer. Quantification is performed in comparison with the standard curve, obtained from pure nucleoside standards (Selleck Chemicals) running with the same batch of samples. Percentage m^6 A in cellular mRNA is calculated as 100*(m^6 A/A).

METTL1/WDR4 = METTL1/WDR4 (Homo sapiens, UniProt Q9UBP6); assay: METTL1 assay (3H-SAM flashplate scintillation); assay type: biochemical
Procedure, shortened: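 Radiometric methyltransfer by METTL1/WDR4 (6.25 nM f.c., 5 min preincubation) at ambient temperature in HEPES pH 7.5, KCl, MgCl2, DTT; started with 25 nM 3′-biotinylated RNA and 60 nM 3H-SAM, run 20 min, quenched with 15 μM cold SAM. Product captured on streptavidin flashplates (2 h, 25° C), counted by scintillation.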

METTL3/METTL14 = METTL3/METTL14 (Homo sapiens, UniProt Q86U44); assay: METTL3-14 standard enzyme assay (3H-SAM flashplate scintillation); assay type: biochemical; conditions: METTL3/METTL14 2.5 nM, RNA 100 nM, 3H-SAM 100 nM, 30 min
Procedure, shortened: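 Radiometric methylation readout: biotinylated RNA substrate UCUGGACUAAA and 3H-SAM, each 100 nM final, reacted 30 min at ambient temperature with 2.5 nM enzyme complex after 5 min compound preincubation (HEPES pH 7.5 buffer, KCl, MgCl2, DTT). Excess unlabelled SAM (15 μM) stopped reactions before streptavidin flashplate capture.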

METTL16 = biological target: T1, METTL16 (Homo sapiens, UniProt Q86W50); assay: METTL16 assay (3H-SAM flashplate scintillation); assay type: biochemical; conditions: METTL16 100 nM, RNA 50 nM, 3H-SAM 200 nM, SAM 800 nM, 20 min
T1 sequence (Q86W50 1-562): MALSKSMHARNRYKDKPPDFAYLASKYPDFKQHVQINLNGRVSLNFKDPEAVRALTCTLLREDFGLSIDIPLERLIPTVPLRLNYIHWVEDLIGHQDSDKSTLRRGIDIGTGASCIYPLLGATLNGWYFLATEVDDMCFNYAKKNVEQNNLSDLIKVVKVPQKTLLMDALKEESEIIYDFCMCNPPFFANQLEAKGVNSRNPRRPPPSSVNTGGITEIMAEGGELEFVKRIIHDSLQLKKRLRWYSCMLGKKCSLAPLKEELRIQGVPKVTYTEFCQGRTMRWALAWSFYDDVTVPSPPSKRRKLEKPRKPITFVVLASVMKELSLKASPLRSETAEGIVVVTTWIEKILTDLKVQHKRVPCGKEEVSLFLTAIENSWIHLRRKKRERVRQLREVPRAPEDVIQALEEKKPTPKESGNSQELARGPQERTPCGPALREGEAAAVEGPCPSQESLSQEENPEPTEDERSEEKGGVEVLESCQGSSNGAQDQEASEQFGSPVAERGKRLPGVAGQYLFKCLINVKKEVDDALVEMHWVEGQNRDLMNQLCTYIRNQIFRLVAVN
Procedure, shortened: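 Radiometric methyltransferase reaction at ambient temperature in 20 mM HEPES pH 7.5, 50 mM KCl, 1 mM DTT, with 100 nM enzyme preincubated 5 min with compound. It was started with 50 nM 3′-biotinylated RNA, 200 nM 3H-SAM plus 800 nM cold SAM, run 20 min, then quenched with excess cold SAM. Product was captured on streptavidin flashplates and scintillation-counted.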

MOLM-13 cells [3] = assay: MOLM-13 96 Hour cell proliferation assay (Cell Titer-Glo); assay type: cell-based; conditions: Homo sapiens
Procedure, shortened: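 MOLM-13 cells were seeded at 600 cells/well in RPMI 1640 with 10% FBS, then incubated overnight. Compounds were added at 0.25% DMSO final for 96 h at 37° C, with CellTiter-Glo luminescence read-out. Values normalized to staurosporine (100% death) and DMSO (0%); IC50 from 4-parameter logistic fit.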

[4] = METTL1/WDR4 6.25 nM, RNA 25 nM, 3H-SAM 60 nM, 20 min, read-out: METTL1 IC50

Chain of PRMT5-MEP50 (O14744 whole entry): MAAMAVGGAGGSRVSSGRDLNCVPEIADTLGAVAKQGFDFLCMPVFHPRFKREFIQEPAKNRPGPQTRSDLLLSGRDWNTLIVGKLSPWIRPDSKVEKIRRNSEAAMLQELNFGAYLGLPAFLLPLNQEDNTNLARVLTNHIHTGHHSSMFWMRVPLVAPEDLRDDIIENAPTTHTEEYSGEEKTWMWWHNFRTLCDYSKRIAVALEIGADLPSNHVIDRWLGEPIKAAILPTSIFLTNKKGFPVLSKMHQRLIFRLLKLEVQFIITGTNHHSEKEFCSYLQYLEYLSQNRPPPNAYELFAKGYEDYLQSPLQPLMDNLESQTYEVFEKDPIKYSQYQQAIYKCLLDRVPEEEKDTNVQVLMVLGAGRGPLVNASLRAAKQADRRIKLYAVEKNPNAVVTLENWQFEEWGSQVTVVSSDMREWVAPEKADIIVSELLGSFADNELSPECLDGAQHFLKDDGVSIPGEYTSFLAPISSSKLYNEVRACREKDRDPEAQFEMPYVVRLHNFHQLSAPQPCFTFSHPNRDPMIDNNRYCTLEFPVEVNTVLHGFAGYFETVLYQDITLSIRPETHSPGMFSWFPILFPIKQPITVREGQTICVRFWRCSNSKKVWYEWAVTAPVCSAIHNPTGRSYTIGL
Chain of PRMT5-MEP50 (Q9BQA1 whole entry partner): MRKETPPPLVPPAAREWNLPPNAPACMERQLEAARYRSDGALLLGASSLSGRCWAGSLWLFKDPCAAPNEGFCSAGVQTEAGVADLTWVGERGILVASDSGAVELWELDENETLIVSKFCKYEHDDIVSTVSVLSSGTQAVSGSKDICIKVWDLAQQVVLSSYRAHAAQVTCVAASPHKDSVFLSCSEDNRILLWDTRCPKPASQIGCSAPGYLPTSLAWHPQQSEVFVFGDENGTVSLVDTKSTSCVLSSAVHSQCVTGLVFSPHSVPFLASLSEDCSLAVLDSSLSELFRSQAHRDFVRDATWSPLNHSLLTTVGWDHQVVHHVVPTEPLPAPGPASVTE
Chain of METTL1/WDR4 (Q9UBP6 whole entry, species assumed): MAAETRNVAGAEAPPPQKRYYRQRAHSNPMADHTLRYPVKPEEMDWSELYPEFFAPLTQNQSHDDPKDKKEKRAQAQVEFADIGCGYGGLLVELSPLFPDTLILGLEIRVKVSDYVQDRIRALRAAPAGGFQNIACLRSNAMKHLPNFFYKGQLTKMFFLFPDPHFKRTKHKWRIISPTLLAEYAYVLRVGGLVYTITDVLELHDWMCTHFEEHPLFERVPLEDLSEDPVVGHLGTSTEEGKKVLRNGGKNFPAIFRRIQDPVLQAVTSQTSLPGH
Chain of METTL1/WDR4 (P57081 whole entry partner, species assumed): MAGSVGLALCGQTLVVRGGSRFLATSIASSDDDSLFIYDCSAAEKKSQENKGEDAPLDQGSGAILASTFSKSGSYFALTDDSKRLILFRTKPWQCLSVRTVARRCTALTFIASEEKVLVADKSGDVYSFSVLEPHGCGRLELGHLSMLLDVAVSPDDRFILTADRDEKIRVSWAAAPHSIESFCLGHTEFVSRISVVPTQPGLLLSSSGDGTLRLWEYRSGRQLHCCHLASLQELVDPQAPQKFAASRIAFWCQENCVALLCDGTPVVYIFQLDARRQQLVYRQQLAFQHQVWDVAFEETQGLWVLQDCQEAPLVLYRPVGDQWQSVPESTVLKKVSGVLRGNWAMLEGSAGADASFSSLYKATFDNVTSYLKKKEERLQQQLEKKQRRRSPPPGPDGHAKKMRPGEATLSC
Chain of METTL3/METTL14 (Q86U44 whole entry, species assumed): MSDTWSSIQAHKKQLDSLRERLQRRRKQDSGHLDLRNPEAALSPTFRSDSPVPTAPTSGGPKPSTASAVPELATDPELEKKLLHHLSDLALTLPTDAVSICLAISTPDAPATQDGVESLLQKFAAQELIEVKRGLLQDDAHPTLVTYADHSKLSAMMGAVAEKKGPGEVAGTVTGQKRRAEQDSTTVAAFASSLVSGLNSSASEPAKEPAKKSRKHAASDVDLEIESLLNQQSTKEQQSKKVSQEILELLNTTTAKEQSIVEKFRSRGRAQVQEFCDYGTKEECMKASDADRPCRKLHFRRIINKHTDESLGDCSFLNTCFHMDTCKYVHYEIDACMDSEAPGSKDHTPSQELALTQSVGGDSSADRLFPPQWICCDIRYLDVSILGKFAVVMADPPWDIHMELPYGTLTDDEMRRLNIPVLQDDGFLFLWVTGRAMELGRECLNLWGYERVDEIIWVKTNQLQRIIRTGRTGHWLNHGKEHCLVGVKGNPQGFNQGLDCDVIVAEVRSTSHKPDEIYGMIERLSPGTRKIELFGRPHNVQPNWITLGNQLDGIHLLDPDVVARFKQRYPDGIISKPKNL
Chain of METTL3/METTL14 (Q9HCE5 whole entry partner, species assumed): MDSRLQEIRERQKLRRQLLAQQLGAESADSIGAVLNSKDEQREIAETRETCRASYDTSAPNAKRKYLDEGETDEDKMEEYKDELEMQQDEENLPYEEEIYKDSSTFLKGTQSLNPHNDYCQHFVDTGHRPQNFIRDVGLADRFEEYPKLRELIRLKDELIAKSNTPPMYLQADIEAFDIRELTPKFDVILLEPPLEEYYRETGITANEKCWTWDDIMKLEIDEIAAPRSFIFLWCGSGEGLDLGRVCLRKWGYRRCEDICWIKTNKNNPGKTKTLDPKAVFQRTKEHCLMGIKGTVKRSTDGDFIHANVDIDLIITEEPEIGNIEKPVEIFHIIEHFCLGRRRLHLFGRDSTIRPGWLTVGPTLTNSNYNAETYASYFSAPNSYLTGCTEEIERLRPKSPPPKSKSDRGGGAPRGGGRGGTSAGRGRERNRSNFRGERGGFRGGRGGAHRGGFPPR

Row | IC50 (METTL16) [nM] | SMILES | IC50 (PRMT5-MEP50) [nM] | IC50 (MOLM-13 cells [1]) [nM] | IC50 [2] [nM] | IC50 (METTL1/WDR4; [4]) [nM] | IC50 (METTL3/METTL14) [nM] | IC50 (METTL1/WDR4) [nM] | IC50 (MOLM-13 cells [3]) [nM]
1 | – | CNc1ccc2ccc(OCc3cc(CO)cc(-c4c[nH]c5c(N)ncnc45)c3)cc2n1 [Compound I-10] | > 1000 | ≥ 10000 | ≥ 10000 | > 1000 | < 10 | – | –
2 | – | CCc1cc(N)c2ccc(OCc3cncc(-n4cc(C5CCCC5)c5c(N)ncnc54)c3)cc2n1 [Compound I-11] | > 1000 | < 1000 | 1000 to 10000 | > 1000 | < 10 | – | –
3 | – | CNc1ccc2ccc(CCc3cncc(-n4cc(-c5ccn(C)n5)c5c(N)ncnc54)c3)cc2n1 [Compound I-1, 7-(2-(5-(4-amino-5-(1-methyl-1H-pyrazol-3-yl)-7H-pyrrolo[2,3-d]pyrimidin-7-yl)pyridin-3-yl)ethyl)-N-methylquinolin-2-amine] | > 1000 | < 1000 | < 1000 | – | < 10 | > 1000 | –
4 | > 1000 | CNc1ccc2ccc(OCc3cncc(-c4c(C)[nH]c5c(N)ncnc45)c3)cc2n1 [Compound I-25] | > 1000 | ≥ 10000 | ≥ 10000 | – | < 10 | – | –
5 | – | CCc1cc(NCCOC)c2ccc(OCc3cncc(-n4ccc5c(N)ncnc54)c3)cc2n1 [Compound I-16] | > 1000 | 1000 to 10000 | 1000 to 10000 | > 1000 | < 10 | – | –
6 | – | CNc1ccc2ccc(OCc3cncc(-n4ccc5c(N)ncnc54)n3)cc2n1 [Compound I-14] | > 1000 | 1000 to 10000 | 1000 to 10000 | > 1000 | < 10 | – | –
7 | > 1000 | CCNc1ccc2ccc(OCc3cncc(-n4cc(Cl)c5c(N)ncnc54)c3)cc2n1 [Compound I-59] | > 1000 | 1000 to 10000 | 1000 to 10000 | – | < 10 | – | –
8 | – | CCc1cc(NCCN(C)C)c2ccc(OCc3cncc(-n4ccc5c(N)ncnc54)c3)cc2n1 [Compound I-15] | > 1000 | 1000 to 10000 | – | > 1000 | < 10 | – | –
9 | – | CNc1ccc2ccc(OCc3cncc(-n4cc(C)c5c(N)ncnc54)c3)cc2n1 [Compound I-17] | > 1000 | < 1000 | ≥ 10000 | > 1000 | < 10 | – | –
10 | – | CCc1cc(NCCOC)c2ccc(OCc3cncc(-c4c[nH]c5c(N)ncnc45)c3)cc2n1 [Compound I-7] | > 1000 | ≥ 10000 | – | > 1000 | < 10 | – | –
11 | – | CNc1ccc2ccc(OCc3cncc(-c4cn(C5CCCC5)c5c(N)ncnc45)c3)cc2n1 [Compound I-18] | > 1000 | 1000 to 10000 | 1000 to 10000 | > 1000 | < 10 | – | –
12 | > 1000 | CCc1cc(N)c2ccc(OCc3cncc(-n4ccc5c(N)ncnc54)c3)cc2n1 [Compound I-45] | > 1000 | ≥ 10000 | ≥ 10000 | – | < 10 | – | –
13 | > 1000 | Cc1cc(NCCN(C)C)c2ccc(OCc3cncc(-n4cc(Cl)c5c(N)ncnc54)c3)cc2n1 [Compound I-42] | > 1000 | < 1000 | – | – | 10 to 100 | – | –
14 | > 1000 | CNc1ccc2ccc(OCc3cncc(-c4c[nH]c5c(N)ncnc45)c3)cc2n1 [Compound I-47, 7-[(5-{4-amino-5H-pyrrolo[3,2-d]pyrimidin-7-yl}pyridin-3-yl)methoxy]-N-methylquinolin-2-amine] | > 1000 | ≥ 10000 | ≥ 10000 | – | < 10 | – | –
15 | > 1000 | CNc1ccc2ccc(OCc3cncc(-n4ccc5c(N)ncnc54)c3)cc2n1 [Compound I-60] | > 1000 | < 1000 | 1000 to 10000 | – | < 10 | – | –
16 | – | CNc1ccc2ccc(OCc3cc(CO)cc(-n4ccc5c(N)ncnc54)c3)cc2n1 [Compound I-6] | > 1000 | ≥ 10000 | – | > 1000 | < 10 | – | 1000 to 10000
17 | – | CC(C)c1cc(N)c2ccc(OCc3cncc(-n4ccc5c(N)ncnc54)c3)cc2n1 [Compound I-12] | > 1000 | 1000 to 10000 | – | > 1000 | < 10 | – | 1000 to 10000

— US20220372040A1, “METTL3 MODULATORS” (Accent Therapeutics, Inc., priority 2020, published 2022)
